Seven molecules from US9120776B2, “Condensed heterocyclic compound” (Takeda Pharmaceutical Company Limited, priority 2011, dated 2015) can be followed below.

Each structure is given as a SMILES string.

For experiment [1], the target named is T1, RORγt (Homo sapiens, UniProt P51449).
T1 sequence (P51449 1-497 isoform P51449-2): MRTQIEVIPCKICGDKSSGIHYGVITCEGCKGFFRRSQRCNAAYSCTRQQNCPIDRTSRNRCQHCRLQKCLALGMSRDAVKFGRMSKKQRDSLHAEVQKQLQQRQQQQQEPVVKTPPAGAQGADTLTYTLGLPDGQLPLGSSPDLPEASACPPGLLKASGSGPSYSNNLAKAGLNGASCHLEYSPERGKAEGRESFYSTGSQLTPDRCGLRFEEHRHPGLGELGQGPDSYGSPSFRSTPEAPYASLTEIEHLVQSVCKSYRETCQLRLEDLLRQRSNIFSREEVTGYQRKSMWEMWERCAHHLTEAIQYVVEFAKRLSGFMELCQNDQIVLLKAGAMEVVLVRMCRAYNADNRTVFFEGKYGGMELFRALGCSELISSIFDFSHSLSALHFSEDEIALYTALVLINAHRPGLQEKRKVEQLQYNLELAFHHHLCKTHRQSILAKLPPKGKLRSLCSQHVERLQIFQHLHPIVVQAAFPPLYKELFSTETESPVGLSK
The experiment in a line: Jurkat Reporter Test (human IL-17 ROR response element luciferase, RORγt vector). Conditions: luminescence level inhibitory rate at test compound 3 μM, Jurkat cells; read-out: inhibitory rate (%). The experiment is classed as cell-based. The procedure: The Jurkat cells used for the reporter test were cultured in a culture medium (RPMI (Invitrogen), 10% FCS (AusGeneX), 100 U/mL penicillin, 100 μg/mL streptomycin). On the day of the test, 4×10^7 cells were recovered by a centrifugal operation (1000 rpm, 5 min.) and suspended in PBS (phosphate buffered saline) (Invitrogen). Thereafter, the cells were recovered again by a centrifugal operation, and suspended in 2 mL of R buffer (NEON transfection kit, Invitrogen). […] Gene transfer was performed by Electroporation apparatus (NEON, Invitrogen) under the conditions of pulse voltage 1350 V, interval 10 milliseconds, number of times 3. The cells after gene transfer were suspended in 40 mL of a reaction medium (RPMI, 10% Lipid reduced FCS (HyClone), 10 mM HEPES (pH 7.5), 100 U/mL penicillin, 100 μg/mL streptomycin, 5 μM lovastatin), and plated in a 96 well plate by 90 μL each. A test compound diluted with the reaction medium was added by 10 μL each, and the cells were cultured overnight in an incubator. Bright-Glo (Promega) was added by 100 μL each, and the mixture was stirred at room temperature for 10 min, and the luminescence level was measured by Envision (PerkinElmer).

Experiment [2] has as its system Th17 cells. The experiment in a line: Mouse Th17 Cell Differentiation Test (IL-17A in culture supernatant, ELISA). In kind it is cell-based. Particulars: 96 h, inhibitory rate at 10 μM of test compound, mouse CD4 positive naive T cells, 4 days, IL-17A by ELISA. The method, then: CD4 positive naive T cells were collected from the spleen cells of BALB/c mice (female, 8-11w, Charles River Laboratories Japan, Inc.) using CD4+CD62L+ T Cell Isolation kit II (Miltenyi Biotec). The CD4 positive naive T cells in a 96 well plate (3×10^5 cells/well) were stimulated (37° C. for culture) with anti-mouse CD3ε antibody (Bio X cell) (10 μg/mL, solid phase) and anti-CD28 antibody (Bio X cell) (5 μg/mL) for 4 days in the presence of anti-IFN-γ antibody (BioLegend), anti-IL-4 antibody (BioLegend), anti-IL-2 antibody (BioLegend), IL-6, TGF-β and IL-23 to differentiate into Th17 cells. The compound was dissolved in DMSO and then added thereto. The cells were cultured under these conditions for 4 days, and differentiation of the Th17 cells was evaluated by using the concentration of IL-17A, which was measured by ELISA, in the culture supernatant obtained by centrifugation.
A general note: ELISA stands for enzyme-linked immunosorbent assay.

Experiment [3] has as its system Th17 cells. The experiment in a line: Human Th17 Cell Differentiation Test (IL-17A in culture supernatant, ELISA). In kind it is cell-based. Particulars: 144 h; inhibitory rate at 10 μM of test compound; human CD4 positive naive T cells, 6 days, IL-17A by ELISA. The method, then:
CD4 positive naive T cells were isolated from peripheral blood mononuclear cells (PBMC) collected from human peripheral blood by a density gradient centrifugation method. The CD4 positive naive T cells were seeded in a 96 well plate (2×10^4 cells/well), and stimulated (37° C. for culture) with anti-CD 3/28Ab Dynabeads (Invitrogen) for 6 days in the presence of IL-1β, IL-6, IL-23, TGFβ, anti-IFNγ Ab (BioLegend) and anti-IL-4 Ab (BioLegend) to differentiate into Th17 cells. The compound was dissolved in DMSO and then added thereto. After culture for 6 days, the concentration of IL-17A in the culture supernatant obtained by centrifugation was measured by ELISA to evaluate differentiation of the Th17 cells.

Experiment [4] relates to human PBMC. Nature of the experiment: IL17 Production Test in Human PBMC. The experiment is classed as cell-based. Conditions: 72 h, inhibitory rate at 10 μM of test compound, anti-CD3/CD28 stimulation, 3 days, IL-17A by ELISA. The procedure:
Peripheral blood mononuclear cells (PBMC) collected from human peripheral blood by a density gradient centrifugation method were stimulated by Dynabeads (registered trade mark; anti-CD3/CD28 antibody) and cultured at 37° C. for 3 days. The compound was dissolved in DMSO and then added thereto. After culture for 3 days under such conditions, the concentration of IL-17A in the culture supernatant obtained by centrifugation was measured by ELISA to evaluate the effect of the compound on IL-17 production.

Experiment [5] deals with T1, RORγt. Nature of the experiment: RORγt Binding Test (TR-FRET, fluorescent-labeled cholesterol). Conditions: binding inhibitory rate of fluorescent-labeled cholesterol to RORγt at test compound 1 μM. On the set-up: histidine tag (implied by the Histidine Detection Kit). The procedure:
The binding activity of the test compound to RORγt was measured by a time resolved fluorescence resonance energy transfer method (TR-FRET) utilizing histidine-tagged RORγt, fluorescent-labeled cholesterol (BODIPY-cholesterol, AVIVA) and terbium-labeled anti-histidine tag antibody (Invitrogen). First, a test compound diluted with an assay buffer (20 mM Tris-HCl (pH 7.5), 100 mM NaCl, 1 mM DTT, 0.1% BSA) was added to a 384 well plate by 3 μL each. Then, RORγt diluted with an assay buffer to 240 nM was added by 3 μL each, after which fluorescent-labeled cholesterol diluted with the assay buffer to 12 μM was added by 3 μL each, and the mixture was stood at room temperature for 20 min. Thereafter, a terbium-labeled anti-histidine tag antibody diluted with the assay buffer to 8 nM was added by 3 μL each. The mixture was stood at room temperature for 20 min, and fluorescence intensity (excitation wavelength 320 nm, fluorescence wavelength 520 nm, delay time 100 microseconds) was measured by Envision (PerkinElmer).
On the technique in general: TR-FRET usually uses a lanthanide donor and a delayed reading to cut background.

In experiment [6] the target is T1, RORγt. Nature of the experiment: Cofactor Recruitment Test (Alpha Screen, biotinylated SRC-1 peptide). Particulars: signal value inhibitory rate at test compound 1 μM. On the set-up: histidine tag (implied by the Histidine Detection Kit). In kind it is biochemical. The procedure: Cofactor recruitment test was performed by Alpha Screen (Histidine Detection Kit, PerkinElmer) method. First, a test compound diluted with an assay buffer (50 mM Tris-HCl (pH 7.5), 50 mM KCl, 1 mM DTT, 0.1% BSA) was added to a 384 well plate by 5 μL each. […] The mixture was stood in a dark place for 1 hr, and the signal value was measured by Envision (PerkinElmer).

With `CCn1c(C)c(C)c2cc(NC(=O)CC(C)CC(=O)Nc3ccc(C#N)cc3)ccc21` (stereo not drawn) [Example 3, N-(4-cyanophenyl)-N′-(1-ethyl-2,3-dimethyl-1H-indol-5-yl)-3-methylpentanediamide], the inhibition at 3 µM in experiment [1] came to 82.6%. Moreover, the inhibition at 10 µM in experiment [2] was 97.1%; in experiment [3], 80%; in experiment [4], 73.3%. The inhibition at 1 µM in experiment [5] is 88.2%; in experiment [6] it was 99.7%.

On to `CC(C)Cn1c2c(c3cc(NC(=O)CC(C)CC(=O)Nc4ccc(C#N)cc4)ccc31)CCCC2` (stereo not drawn) [Example 20, N-(4-cyanophenyl)-3-methyl-N′-[9-(2-methylpropyl)-2,3,4,9-tetrahydro-1H-carbazol-6-yl]pentanediamide], for which, in experiment [1], the inhibition at 3 µM came out at 102%. The values for the inhibition at 10 µM in experiment [2], in experiment [3] and in experiment [4] were 95.8%, 89.9% and 84%, respectively. The inhibition at 1 µM in experiment [5] worked out at 98.7%; in experiment [6], 101%.

Consider `CCn1c2ccccc2c2cc(NC(=O)CC(C)(O)CCOc3ccc(C#N)c(Cl)c3)ccc21` (stereo not drawn) [Example 30, 5-(3-chloro-4-cyanophenoxy)-N-(9-ethyl-9H-carbazol-3-yl)-3-hydroxy-3-methylpentanamide], for which, in experiment [1], the inhibition at 3 µM was 92.5%. In addition, the inhibition at 10 µM in experiment [2] amounted to 96.1%; in experiment [3] it was 100%; in experiment [4], 100%. In addition, the inhibition at 1 µM was 94.4% in experiment [5] and 100% in experiment [6].

For `CCn1c2c(c3cc(NC(=O)CC(C)CC(=O)Nc4ccc(C#N)cc4)ccc31)CCCC2` (stereo not drawn) [Example 4, N-(4-cyanophenyl)-N′-(9-ethyl-2,3,4,9-tetrahydro-1H-carbazol-6-yl)-3-methylpentanediamide], the inhibition at 10 µM was found to be 97% in experiment [2] (Mus musculus, CD4 positive); 100% in experiment [3]; 88.3% in experiment [4].

Consider `CCCn1c2c(c3cc(NC(=O)CC(C)CC(=O)Nc4ccc(C#N)cc4)ccc31)CCCC2` (stereo not drawn) [Example 19, N-(4-cyanophenyl)-3-methyl-N′-(9-propyl-2,3,4,9-tetrahydro-1H-carbazol-6-yl)pentanediamide], for which, in experiment [1], the inhibition at 3 µM worked out at 103%. Moreover, the inhibition at 10 µM is 95.8% in experiment [2], 95.2% in experiment [3] and 87% in experiment [4]. Also, the inhibition at 1 µM in experiment [5] came to 98.9%; in experiment [6], 101%.

In the case of `CCn1c2ccccc2c2cc(NC(=O)CCCC(=O)Nc3ccc(C#N)cc3)ccc21` [Example 16, N-(4-cyanophenyl)-N′-(9-ethyl-9H-carbazol-3-yl)pentanediamide], the inhibition at 10 µM in experiment [2] (Mus musculus, CD4 positive) worked out at 96%; in experiment [3], 96.2%; in experiment [4] it was 91%.

In the case of `CCn1c2ccccc2c2cc(NC(=O)CC(C)CC(=O)Nc3ccc(C#N)c(C(F)(F)F)c3)ccc21` (stereo not drawn) [Example 18, N-[4-cyano-3-(trifluoromethyl)phenyl]-N′-(9-ethyl-9H-carbazol-3-yl)-3-methylpentanediamide], the inhibition at 10 µM in experiment [2] (Mus musculus, CD4 positive) is 95.8%; in experiment [3], 98.5%; in experiment [4] it was 96%.
